Where two headings read alike, the source gives them in different places.
Columns and labels:
U937 cells [1] = assay: LPS-induced TNF alpha release in U937 cells; format: cell-based
Procedure, shortened: (§1)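 U937 cells differentiated with PMA (100 ng/ml) for 48 to 72 hours, pre-treated with compound for 2 hrs, then stimulated with E. coli O111:B4 LPS for 4 hrs. Supernatant TNFα and IL-8 measured by sandwich ELISA; inhibition at each concentration versus vehicle control.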

p38 MAPK alpha (MAPK14) = biological target: T1, p38 MAPK alpha (MAPK14) (Homo sapiens, UniProt Q16539); assay: Enzyme inhibition assay, p38 MAPK alpha (FRET, Z-LYTE, via MAPKAP-K2); format: biochemical; settings: read-out: Enzyme p38α IC50
T1 construct: purchased Invitrogen
T1 sequence (Q16539 whole entry): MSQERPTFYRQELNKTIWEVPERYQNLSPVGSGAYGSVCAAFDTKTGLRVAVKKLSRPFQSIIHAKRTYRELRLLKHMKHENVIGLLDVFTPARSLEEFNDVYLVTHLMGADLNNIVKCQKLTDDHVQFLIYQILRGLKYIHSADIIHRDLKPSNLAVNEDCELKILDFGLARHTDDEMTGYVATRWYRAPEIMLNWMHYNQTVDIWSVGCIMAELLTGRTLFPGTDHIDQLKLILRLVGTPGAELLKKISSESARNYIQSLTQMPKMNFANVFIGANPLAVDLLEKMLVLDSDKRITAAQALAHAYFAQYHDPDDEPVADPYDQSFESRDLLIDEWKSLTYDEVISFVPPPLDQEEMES

[2] = test system: Differentiated U937 cells; assay: MTT assay (cell viability); format: cell-based, human
Procedure, shortened: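 Differentiated U937 cells pre-incubated with compound 4 h in 5% FCS or 24 h in 10% FCS; MTT read at 550 nm after DMSO solubilisation. Percentage loss of viability relative to 0.5% DMSO vehicle; apparent increases appear as negative percentages.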

BEAS2B cells = assay: Poly I:C-induced ICAM-1 induction in BEAS2B cells; format: cell-based; settings: Homo sapiens, BEAS-2B, read-out: BEAS2B (polyIC) ICAM1 IC50
Procedure, shortened: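 Poly I:C (1 ug/ml) transfected into BEAS2B cells after 2 h compound pre-incubation. Surface ICAM-1 measured by cell-based ELISA 18 h post-transfection (HRP, OD450–655), corrected for cell number by OD595.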

THP-1 cells = assay: LPS-induced TNF alpha release in THP-1 cells; format: cell-based; settings: Homo sapiens
Protocol: LPS-Induced TNF Alpha Release in THP-1 Cells: Potency […] Coli; O111:B4, Sigma) for 4 hr and the supernatant collected for determination of TNFα concentration by sandwich ELISA (Duo-set, R&D systems). The inhibition of TNFα production was calculated at each concentration by comparison with vehicle control.

U937 cells [3] = assay: LPS-induced IL-8 release in U937 cells; format: cell-based; settings: Homo sapiens, read-out: DU937 (LPS) IL-8 IC50
Procedure, shortened: as §1

[4] = Homo sapiens; read-out: DU937 (LPS) TNFα REC50
[5] = Table 1, MTT, loss of cell viability at 1 μg/ml
[6] = Table 1, first MTT column, loss of cell viability at 1 μg/ml
[7] = THP-1, Table 1, read-out: THP-1 (LPS) TNFα IC50
[8] = Table 2, loss of cell viability at 1 μg/ml
[9] = Table 3, first MTT column, loss of cell viability at 1 μg/ml
[10] = Table 3, second MTT column, loss of cell viability at 1 μg/ml
[11] = THP-1, Table 3, read-out: THP-1 (LPS) TNFα IC50
[12] = Table 2, loss of cell viability, test conducted at 10 μg/ml
[13] = THP-1, Table 2, read-out: THP-1 (LPS) TNFα IC50

EC50 (U937 cells [1]; [4]) [nM]	IC50 (p38 MAPK alpha (MAPK14); Table 2) [nM]	IC50 (p38 MAPK alpha (MAPK14); Table 3) [nM]	IC50 (THP-1 cells; [11]) [nM]	IC50 (U937 cells [3]; Table 3) [nM]	IC50 (THP-1 cells; [13]) [nM]	IC50 (U937 cells [3]; Table 2) [nM]	SMILES	DU937 (cell viability) MTT assay 4 h [2, 9]	DU937 (cell viability) MTT assay 4 h [2, 10]	IC50 (BEAS2B cells; Table 3) [nM]	IC50 (BEAS2B cells; Table 2) [nM]	other results
< 10		< 10	< 10	< 5000			Cc1ccc(-n2nc(C(C)(C)C)cc2NC(=O)Nc2ccc(Oc3ccnc(NC(N)=O)c3)c3ccccc23)cc1 [Example 29, 4-(4-(3-(3-tert-Butyl-1-p-tolyl-1H-pyrazol-5-yl)ureido)naphthalen-1-yloxy)pyridin-2-yl urea]	− (<=30%)	− (<=30%)	< 10		
< 10		< 10	< 10	< 10			Cc1ccc(-n2nc(C(C)(C)C)cc2NC(=O)Nc2ccc(Oc3ccnc(NC(=O)N4CCCCC4)c3)c3ccccc23)cc1 [Example 45, N-(4-((4-(3-(3-(tert-Butyl)-1-(p-tolyl)-1H-pyrazol-5-yl)ureido)naphthalen-1-yl)oxy)pyridin-2-yl)piperidine-1-carboxamide]	− (<=30%)	− (<=30%)	< 10		
< 10							Cc1ccc(-n2nc(C(C)(C)C)cc2NC(=O)Nc2ccc(Oc3ccnc(NC(N)=O)n3)c3ccccc23)cc1 [Example 66, 3-(4-(4-(3-(3-tert-Butyl-1-p-tolyl-1H-pyrazol-5-yl)ureido)naphthalen-1-yloxy)pyrimidin-2-yl)urea]					IC50 (p38 MAPK alpha (MAPK14); Table 1): < 5000 nM; DU937 (cell viability) MTT assay 4 h [2, 5]: − (<=30%); DU937 (cell viability) MTT assay 4 h [2, 6]: − (<=30%); IC50 (BEAS2B cells; Table 1): < 5000 nM; IC50 (THP-1 cells; [7]): < 10 nM; IC50 (U937 cells [3]; Table 1): < 10 nM
< 10	< 5000				< 10	< 10	Cc1ccc(-n2nc(C(C)(C)C)cc2NC(=O)Nc2ccc(Oc3ccnc(NC(=O)CO)c3)c3ccccc23)cc1 [Example 5, N-(4-(4-(3-(3-tert-Butyl-1-p-tolyl-1H-pyrazol-5-yl)ureido)naphthalen-1-yloxy)pyridin-2-yl)-2-hydroxyacetamide]				< 10	DU937 (cell viability) MTT assay 4 h [2, 12]: +^$ (>30%); DU937 (cell viability) MTT assay 24 h [2, 12]: +^$ (>30%)

Second part, the compound before the results:

SMILES	EC50 (U937 cells [1]; [4]) [nM]	IC50 (p38 MAPK alpha (MAPK14); Table 2) [nM]	IC50 (p38 MAPK alpha (MAPK14); Table 3) [nM]	IC50 (THP-1 cells; [11]) [nM]	IC50 (U937 cells [3]; Table 3) [nM]	IC50 (THP-1 cells; [13]) [nM]	IC50 (U937 cells [3]; Table 2) [nM]	DU937 (cell viability) MTT assay 4 h [2, 9]	DU937 (cell viability) MTT assay 4 h [2, 10]	IC50 (BEAS2B cells; Table 3) [nM]	IC50 (BEAS2B cells; Table 2) [nM]	other results
CNC(=O)Nc1nccc(Oc2ccc(NC(=O)Nc3cc(C(C)(C)C)nn3-c3ccc(C)cc3)c3ccccc23)n1 [Example 67, 1-Methyl-3-(4-(4-(3-(3-tert-butyl-1-p-tolyl-1H-pyrazol-5-yl)ureido)naphthalen-1-yloxy)pyrimidin-2-yl)urea]	< 10											IC50 (p38 MAPK alpha (MAPK14); Table 1): < 5000 nM; DU937 (cell viability) MTT assay 4 h [2, 5]: − (<=30%); DU937 (cell viability) MTT assay 4 h [2, 6]: − (<=30%); IC50 (BEAS2B cells; Table 1): < 5000 nM; IC50 (THP-1 cells; [7]): < 10 nM; IC50 (U937 cells [3]; Table 1): < 10 nM
Cc1ccc(-n2nc(C(C)(C)C)cc2NC(=O)Nc2ccc(Oc3ccnc(NC(=O)CNC(=O)c4ccncc4)c3)c3ccccc23)cc1 [Example 17, N-(2-(4-(4-(3-(3-tert-Butyl-1-p-tolyl-1H-pyrazol-5-yl)ureido)naphthalen-1-yloxy)pyridin-2-ylamino)-2-oxoethyl)isonicotinamide]		< 10										EC50 (U937 cells [1]; Homo sapiens, read-out: DU937 (LPS) TNFα REC50): < 10 nM; DU937 (cell viability) MTT assay 4 h [2, 8]: − (<=30%); DU937 (cell viability) MTT assay 24 h [2, 8]: + (>30%); IC50 (BEAS2B cells): < 10 nM; IC50 (THP-1 cells; THP-1, read-out: THP-1 (LPS) TNFα IC50): < 10 nM; IC50 (U937 cells [3]): < 10 nM
Cc1ccc(-n2nc(C(C)(C)C)cc2NC(=O)Nc2ccc(Oc3ccnc(NC(=O)N4CCC(O)CC4)c3)c3ccccc23)cc1 [Example 51, N-(4-(4-(3-(3-tert-Butyl-1-p-tolyl-1H-pyrazol-5-yl)ureido)naphthalen-1-yloxy)pyridin-2-yl)-4-hydroxypiperidine-1-carboxamide]	< 10		< 10	< 10	< 10			− (<=30%)	+ (>30%)	< 10		
Cc1ccc(-n2nc(C(C)(C)C)cc2NC(=O)Nc2ccc(Oc3ccnc(NC(=O)CN4CCOCC4)c3)c3ccccc23)cc1 [Example 11, N-(4-(4-(3-(3-tert-Butyl-1-p-tolyl-1H-pyrazol-5-yl)ureido)naphthalen-1-yloxy)pyridin-2-yl)-2-morpholinoacetamide]	< 10	< 10				< 10	< 10				< 5000	DU937 (cell viability) MTT assay 4 h [2, 12]: −^$ (<=30%); DU937 (cell viability) MTT assay 24 h [2, 12]: +^$ (>30%)
COCC(=O)Nc1nccc(Oc2ccc(NC(=O)Nc3cc(C(C)(C)C)nn3-c3ccc(C)cc3)c3ccccc23)n1 [Example 65, N-(4-(4-(3-(3-tert-Butyl-1-p-tolyl-1H-pyrazol-5-yl)ureido)naphthalen-1-yloxy)pyrimidin-2-yl)-2-methoxyacetamide]	< 10											IC50 (p38 MAPK alpha (MAPK14); Table 1): < 5000 nM; DU937 (cell viability) MTT assay 4 h [2, 5]: − (<=30%); DU937 (cell viability) MTT assay 4 h [2, 6]: − (<=30%); IC50 (BEAS2B cells; Table 1): < 5000 nM; IC50 (THP-1 cells; [7]): < 10 nM; IC50 (U937 cells [3]; Table 1): < 5000 nM
COCC(=O)Nc1cc(Oc2ccc(NC(=O)Nc3cc(C(C)(C)C)nn3-c3ccc(C)cc3)c(C)c2C)ccn1 [Example 26, N-(4-(4-(3-(3-tert-Butyl-1-p-tolyl-1H-pyrazol-5-yl)ureido)-2,3-dimethylphenoxy)pyridin-2-yl)-2-methoxyacetamide]	< 10	< 5000				< 10	< 10				< 10	DU937 (cell viability) MTT assay 4 h [2, 8]: − (<=30%); DU937 (cell viability) MTT assay 24 h [2, 8]: + (>30%)
Cc1ccc(-n2nc(C(C)(C)C)cc2NC(=O)Nc2ccc(Oc3ccnc(NC(=O)CNC(=O)N4CCOCC4)c3)c3ccccc23)cc1 [Example 20, N-(2-(4-(4-(3-(3-tert-Butyl-1-p-tolyl-1H-pyrazol-5-yl)ureido)naphthalen-1-yloxy)pyridin-2-ylamino)-2-oxoethyl)morpholine-4-carboxamide]	< 10	< 10				< 10	< 5000				< 5000	DU937 (cell viability) MTT assay 4 h [2, 8]: − (<=30%); DU937 (cell viability) MTT assay 24 h [2, 8]: − (<=30%)
Cc1ccc(-n2nc(C(C)(C)C)cc2NC(=O)Nc2ccc(Oc3ccnc(NC(=O)N(C)CCN4CCOCC4)c3)c3ccccc23)cc1 [Example 46, N-Methyl-N-(2-(morpholin-4-yl)ethyl)-N′-4-(4-(3-(3-tert-butyl-1-p-tolyl-1H-pyrazol-5-yl)ureido)naphthalen-1-yloxy)pyridin-2-ylurea]	< 10		< 10	< 5000	< 10			− (<=30%)	− (<=30%)	< 5000		
Cc1ccc(-n2nc(C(C)(C)C)cc2NC(=O)Nc2ccc(Oc3ccnc(NC(=O)NCC(=O)NCCN4CCOCC4)c3)c3ccccc23)cc1 [Example 57, 2-(3-(4-(4-(3-(3-tert-Butyl-1-p-tolyl-1H-pyrazol-5-yl)ureido)naphthalen-1-yloxy)pyridin-2-yl)ureido)-N-(2-morpholinoethyl)acetamide]	< 5000		< 10	< 10	< 5000			− (<=30%)	− (<=30%)	< 5000		

Reference: patent publication US8299074B2, “P38 MAP kinase inhibitors” (RespiVert Ltd., priority 2008, dated 2012)
